Assay results from the kinase profiling compilation of Christmann-Franck et al. (2016).

Experiments:
Experiment in all cases: KINOMEscan competition binding
Conditions in all cases: compound 1.0 µM
ABL1 (human) = ABL1 (human) (UniProt P00519)
ACVR1 (human) = ACVR1 (human) (UniProt Q04771)
ACVR1B (human) = ACVR1B (human) (UniProt P36896)
ANKK1 (human) = ANKK1 (human) (UniProt Q8NFD2)
BMP2K (human) = BMP2K (human) (UniProt Q9NSY1)
BMPR1B (human) = BMPR1B (human) (UniProt O00238)
BMPR2 (human) = BMPR2 (human) (UniProt Q13873)
Sequence of BMPR2 (human) (Q13873 whole entry, looked up): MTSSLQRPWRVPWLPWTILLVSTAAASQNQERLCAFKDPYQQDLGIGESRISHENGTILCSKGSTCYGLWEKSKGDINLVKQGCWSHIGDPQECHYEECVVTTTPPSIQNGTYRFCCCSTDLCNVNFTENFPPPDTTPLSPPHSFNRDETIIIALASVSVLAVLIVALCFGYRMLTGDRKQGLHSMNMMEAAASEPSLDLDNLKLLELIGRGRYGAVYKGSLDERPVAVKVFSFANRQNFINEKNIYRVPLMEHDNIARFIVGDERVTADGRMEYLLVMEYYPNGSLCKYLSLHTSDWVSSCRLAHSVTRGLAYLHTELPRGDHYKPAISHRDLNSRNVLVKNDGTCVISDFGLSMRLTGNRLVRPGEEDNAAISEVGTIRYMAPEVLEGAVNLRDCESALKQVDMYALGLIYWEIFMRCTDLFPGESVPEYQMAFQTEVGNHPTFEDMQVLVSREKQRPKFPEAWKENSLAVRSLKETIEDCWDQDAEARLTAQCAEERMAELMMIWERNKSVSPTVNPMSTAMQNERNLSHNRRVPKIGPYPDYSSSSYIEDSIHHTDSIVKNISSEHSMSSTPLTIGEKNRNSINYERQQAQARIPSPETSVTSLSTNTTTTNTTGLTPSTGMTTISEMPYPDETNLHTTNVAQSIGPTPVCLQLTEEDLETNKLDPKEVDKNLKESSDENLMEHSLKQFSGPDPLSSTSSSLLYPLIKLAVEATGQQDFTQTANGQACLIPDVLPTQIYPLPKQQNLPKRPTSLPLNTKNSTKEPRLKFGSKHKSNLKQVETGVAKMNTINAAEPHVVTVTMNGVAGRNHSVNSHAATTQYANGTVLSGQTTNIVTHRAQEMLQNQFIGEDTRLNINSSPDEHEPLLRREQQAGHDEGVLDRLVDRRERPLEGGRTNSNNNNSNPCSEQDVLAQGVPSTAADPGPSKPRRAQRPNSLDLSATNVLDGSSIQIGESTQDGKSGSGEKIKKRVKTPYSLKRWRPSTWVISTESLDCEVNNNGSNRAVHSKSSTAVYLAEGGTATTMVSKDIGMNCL

BTK (human) = BTK (human) (UniProt Q06187)
CAMK2A (human) = CAMK2A (human) (UniProt Q9UQM7)
CDK5 (human) = CDK5 (human) (UniProt Q00535)
CLK4 (human) = CLK4 (human) (UniProt Q9HAZ1)
CaMK1 (human) = CaMK1 (human) (UniProt Q14012)
DYRK1A (human) = DYRK1A (human) (UniProt Q13627)
DYRK2 (human) = DYRK2 (human) (UniProt Q92630)
[1] = system: EGFR (human), P00533 [T790M/L858R]
EPHA1 (human) = EPHA1 (human) (UniProt P21709)
EPHA7 (human) = EPHA7 (human) (UniProt Q15375)
EPHB1 (human) = EPHB1 (human) (UniProt P54762)
Sequence of EPHB1 (human) (P54762 whole entry, looked up): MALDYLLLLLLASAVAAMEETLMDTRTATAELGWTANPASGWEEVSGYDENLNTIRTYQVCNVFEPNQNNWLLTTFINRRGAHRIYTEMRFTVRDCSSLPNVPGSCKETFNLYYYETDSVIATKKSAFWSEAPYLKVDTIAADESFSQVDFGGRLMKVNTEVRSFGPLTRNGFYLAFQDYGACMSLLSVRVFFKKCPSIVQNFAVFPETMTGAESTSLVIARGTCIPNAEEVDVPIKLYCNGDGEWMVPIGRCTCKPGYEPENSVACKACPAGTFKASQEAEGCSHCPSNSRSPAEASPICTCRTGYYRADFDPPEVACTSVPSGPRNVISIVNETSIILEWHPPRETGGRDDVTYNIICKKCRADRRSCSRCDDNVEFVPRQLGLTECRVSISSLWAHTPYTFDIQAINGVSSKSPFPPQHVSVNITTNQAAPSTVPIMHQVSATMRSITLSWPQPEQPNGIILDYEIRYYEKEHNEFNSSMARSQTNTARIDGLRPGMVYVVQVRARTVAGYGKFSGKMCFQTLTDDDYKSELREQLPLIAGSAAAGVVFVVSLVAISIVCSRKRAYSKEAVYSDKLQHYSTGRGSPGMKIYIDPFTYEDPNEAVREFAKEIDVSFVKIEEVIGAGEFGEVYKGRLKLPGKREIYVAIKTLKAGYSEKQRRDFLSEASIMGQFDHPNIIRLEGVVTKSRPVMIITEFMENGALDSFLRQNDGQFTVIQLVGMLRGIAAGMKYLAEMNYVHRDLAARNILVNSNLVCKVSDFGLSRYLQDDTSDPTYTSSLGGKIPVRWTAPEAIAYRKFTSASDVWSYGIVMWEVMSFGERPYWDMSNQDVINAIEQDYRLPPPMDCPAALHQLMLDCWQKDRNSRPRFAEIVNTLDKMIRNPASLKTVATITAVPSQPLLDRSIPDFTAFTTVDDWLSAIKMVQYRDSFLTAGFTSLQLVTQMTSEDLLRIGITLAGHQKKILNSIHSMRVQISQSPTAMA

[2] = system: FGFR3 (human), P22607 [G697C]
Sequence of FGFR3 (human), P22607 [G697C] (P22607 whole entry G697C, looked up): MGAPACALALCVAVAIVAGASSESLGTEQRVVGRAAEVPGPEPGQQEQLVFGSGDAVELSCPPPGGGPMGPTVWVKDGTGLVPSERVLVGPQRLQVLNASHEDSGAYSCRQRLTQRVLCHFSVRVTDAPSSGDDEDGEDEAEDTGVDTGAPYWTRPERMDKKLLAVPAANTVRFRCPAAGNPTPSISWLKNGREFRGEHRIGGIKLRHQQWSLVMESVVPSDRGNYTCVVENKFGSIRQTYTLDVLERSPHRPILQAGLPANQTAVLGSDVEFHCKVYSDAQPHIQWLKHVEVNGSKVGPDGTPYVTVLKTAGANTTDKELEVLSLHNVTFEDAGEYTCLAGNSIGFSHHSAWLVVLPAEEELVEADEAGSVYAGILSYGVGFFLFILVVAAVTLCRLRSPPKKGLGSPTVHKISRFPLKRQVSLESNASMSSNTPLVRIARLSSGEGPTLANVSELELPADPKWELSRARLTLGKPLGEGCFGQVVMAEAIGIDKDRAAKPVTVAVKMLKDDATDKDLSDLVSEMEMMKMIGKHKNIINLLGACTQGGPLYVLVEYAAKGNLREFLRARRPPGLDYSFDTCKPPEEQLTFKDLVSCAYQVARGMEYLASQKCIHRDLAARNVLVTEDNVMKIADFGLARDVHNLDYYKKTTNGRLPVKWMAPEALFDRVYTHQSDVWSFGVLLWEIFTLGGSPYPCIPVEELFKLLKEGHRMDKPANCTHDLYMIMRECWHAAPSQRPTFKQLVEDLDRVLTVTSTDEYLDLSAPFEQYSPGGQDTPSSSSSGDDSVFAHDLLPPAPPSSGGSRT

FRK (human) = FRK (human) (UniProt P42685)
Sequence of FRK (human) (P42685 whole entry, looked up): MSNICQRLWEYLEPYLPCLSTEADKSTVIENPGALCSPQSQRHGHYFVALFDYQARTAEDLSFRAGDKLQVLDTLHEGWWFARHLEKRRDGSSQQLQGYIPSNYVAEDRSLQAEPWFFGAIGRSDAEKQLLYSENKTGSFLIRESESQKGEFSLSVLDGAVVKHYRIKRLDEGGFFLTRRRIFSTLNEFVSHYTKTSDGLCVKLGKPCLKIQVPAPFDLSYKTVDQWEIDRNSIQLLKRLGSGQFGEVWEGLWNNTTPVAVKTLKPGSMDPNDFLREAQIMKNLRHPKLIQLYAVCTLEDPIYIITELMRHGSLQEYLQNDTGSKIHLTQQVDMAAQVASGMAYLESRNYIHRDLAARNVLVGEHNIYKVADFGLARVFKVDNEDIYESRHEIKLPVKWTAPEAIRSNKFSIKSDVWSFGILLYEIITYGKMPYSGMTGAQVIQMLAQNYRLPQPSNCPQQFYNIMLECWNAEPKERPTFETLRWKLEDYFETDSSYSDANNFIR

HIPK3 (human) = HIPK3 (human) (UniProt Q9H422)
INSRR (human) = INSRR (human) (UniProt P14616)
[3] = system: KIT (human), P10721 [L576P]
[4] = system: KIT (human), P10721 [V559D]
MAP3K2 (human) = MAP3K2 (human) (UniProt Q9Y2U5)
MARK4 (human) = MARK4 (human) (UniProt Q96L34)
MELK (human) = MELK (human) (UniProt Q14680)
MET (human) = MET (human) (UniProt P08581)
OXSR1 (human) = OXSR1 (human) (UniProt O95747)
PAK4 (human) = PAK4 (human) (UniProt O96013)
PAK7 (human) = PAK7 (human) (UniProt Q9P286)
PHKG2 (human) = PHKG2 (human) (UniProt P15735)
PLK1 (human) = PLK1 (human) (UniProt P53350)
PRKCD (human) = PRKCD (human) (UniProt Q05655)
SIK2 (human) = SIK2 (human) (UniProt Q9H0K1)
SRPK1 (human) = SRPK1 (human) (UniProt Q96SB4)
STK17A (human) = STK17A (human) (UniProt Q9UEE5)
TGFBR1 (human) = TGFBR1 (human) (UniProt P36897)
TTK (human) = TTK (human) (UniProt P33981)
TXK (human) = TXK (human) (UniProt P42681)
Sequence of TXK (human) (P42681 whole entry, looked up): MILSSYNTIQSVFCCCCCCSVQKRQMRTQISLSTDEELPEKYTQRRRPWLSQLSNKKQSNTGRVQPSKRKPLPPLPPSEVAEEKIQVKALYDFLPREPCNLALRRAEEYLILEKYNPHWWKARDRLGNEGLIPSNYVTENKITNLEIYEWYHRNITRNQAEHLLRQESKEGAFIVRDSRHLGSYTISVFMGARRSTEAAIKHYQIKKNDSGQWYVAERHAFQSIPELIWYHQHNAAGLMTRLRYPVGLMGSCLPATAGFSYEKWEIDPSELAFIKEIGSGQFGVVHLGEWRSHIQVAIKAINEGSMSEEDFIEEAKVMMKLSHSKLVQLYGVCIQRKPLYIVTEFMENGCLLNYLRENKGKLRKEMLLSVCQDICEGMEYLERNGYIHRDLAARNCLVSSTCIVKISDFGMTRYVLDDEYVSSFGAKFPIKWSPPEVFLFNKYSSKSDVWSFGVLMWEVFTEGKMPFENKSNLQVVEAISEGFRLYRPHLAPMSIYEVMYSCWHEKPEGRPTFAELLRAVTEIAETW

ULK2 (human) = ULK2 (human) (UniProt Q8IYT8)

Sequence of ABL1 (human) (P00519 whole entry, looked up): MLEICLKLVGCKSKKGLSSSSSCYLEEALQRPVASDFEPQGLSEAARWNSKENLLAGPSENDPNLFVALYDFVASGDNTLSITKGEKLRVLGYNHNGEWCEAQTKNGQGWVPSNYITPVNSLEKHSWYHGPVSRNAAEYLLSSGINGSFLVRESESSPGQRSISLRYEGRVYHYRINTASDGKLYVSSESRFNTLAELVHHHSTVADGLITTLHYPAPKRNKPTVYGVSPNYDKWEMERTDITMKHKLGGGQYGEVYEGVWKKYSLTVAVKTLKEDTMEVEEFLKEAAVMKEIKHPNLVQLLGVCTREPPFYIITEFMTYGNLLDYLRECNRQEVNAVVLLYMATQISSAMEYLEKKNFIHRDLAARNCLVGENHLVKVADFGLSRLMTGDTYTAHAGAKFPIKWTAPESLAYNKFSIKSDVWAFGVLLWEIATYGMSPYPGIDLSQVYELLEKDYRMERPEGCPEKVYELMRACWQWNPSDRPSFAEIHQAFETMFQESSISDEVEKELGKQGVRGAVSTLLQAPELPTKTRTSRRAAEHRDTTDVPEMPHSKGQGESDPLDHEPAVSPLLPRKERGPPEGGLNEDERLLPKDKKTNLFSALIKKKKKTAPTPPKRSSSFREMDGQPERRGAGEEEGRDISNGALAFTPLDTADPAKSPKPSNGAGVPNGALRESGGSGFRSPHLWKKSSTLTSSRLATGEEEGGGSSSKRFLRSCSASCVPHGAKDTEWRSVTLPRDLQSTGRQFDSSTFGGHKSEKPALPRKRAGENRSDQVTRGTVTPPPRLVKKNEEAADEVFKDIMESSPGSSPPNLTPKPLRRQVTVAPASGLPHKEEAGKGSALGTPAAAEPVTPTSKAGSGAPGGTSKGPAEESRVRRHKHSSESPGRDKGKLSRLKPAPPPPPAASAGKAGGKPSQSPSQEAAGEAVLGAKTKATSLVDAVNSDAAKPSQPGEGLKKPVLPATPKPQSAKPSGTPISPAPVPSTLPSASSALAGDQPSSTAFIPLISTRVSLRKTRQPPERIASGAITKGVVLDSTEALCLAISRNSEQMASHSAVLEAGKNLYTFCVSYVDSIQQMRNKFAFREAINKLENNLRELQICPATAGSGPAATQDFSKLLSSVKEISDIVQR

SMILES: Nc1cc(C(F)(F)F)c(-c2cc(N3CCOCC3)nc(N3CCOCC3)n2)cn1
- inhibition of binding (ABL1 (human)): 0%
- inhibition of binding (ACVR1 (human)): 0%
- inhibition of binding (ACVR1B (human)): 3%
- inhibition of binding (ANKK1 (human)): 0%
- inhibition of binding (BMP2K (human)): 0%
- inhibition of binding (BMPR1B (human)): 0%
- inhibition of binding (BMPR2 (human)): 0%
- inhibition of binding (BTK (human)): 6%
- inhibition of binding (CAMK2A (human)): 2%
- inhibition of binding (CDK5 (human)): 0%
- inhibition of binding (CLK4 (human)): 70%
- inhibition of binding (CaMK1 (human)): 4%
- inhibition of binding (DYRK1A (human)): 11%
- inhibition of binding (DYRK2 (human)): 20%
- inhibition of binding [1]: 0%
- inhibition of binding (EPHA1 (human)): 2%
- inhibition of binding (EPHA7 (human)): 0%
- inhibition of binding (EPHB1 (human)): 0%
- inhibition of binding [2]: 0%
- inhibition of binding (FRK (human)): 0%
- inhibition of binding (HIPK3 (human)): 0%
- inhibition of binding (INSRR (human)): 0%
- inhibition of binding [3]: 0%
- inhibition of binding [4]: 0%
- inhibition of binding (MAP3K2 (human)): 0%
- inhibition of binding (MARK4 (human)): 0%
- inhibition of binding (MELK (human)): 0%
- inhibition of binding (MET (human)): 12%
- inhibition of binding (OXSR1 (human)): 17%
- inhibition of binding (PAK4 (human)): 13%
- inhibition of binding (PAK7 (human)): 0%
- inhibition of binding (PHKG2 (human)): 11%
- inhibition of binding (PLK1 (human)): 30%
- inhibition of binding (PRKCD (human)): 4%
- inhibition of binding (SIK2 (human)): 0%
- inhibition of binding (SRPK1 (human)): 0%
- inhibition of binding (STK17A (human)): 0%
- inhibition of binding (TGFBR1 (human)): 4%
- inhibition of binding (TTK (human)): 7%
- inhibition of binding (TXK (human)): 0%
- inhibition of binding (ULK2 (human)): 0%
